The values that follow are results of earlier work, collected in patent publication US4535248A, “Method for detecting aflatoxin in almonds” (priority 1984, dated 1985).

This data set has as its system rats. To be noted: for estimated effective dose, hepatocarcinogens (for comparison): similar estimates for other hepatocarcinogens.

For `COc1cc2c(c3oc(=O)c4c(c13)CCC4=O)[C@@H]1C=CO[C@@H]1O2` [B1], the “effective dose for the induction of liver tumors” value (rat, in vivo) is “approximately 10 mg per day”.

For `CN(C)c1ccc(N=Nc2ccccc2)cc1` [butteryellow], the “estimated effective dose, hepatocarcinogens (for comparison)” value is listed as 9,000 mg/day.

On to `CN(C)N=O` [dimethylnitrosamine], for which the “estimated effective dose, hepatocarcinogens (for comparison)” value is given as 750 mg/day.
